{
  "source": "patent US20160213849A1",
  "about": "“CONDITIONAL REQUIRED PRIMING” (SANOFI-AVENTIS DEUTSCHLAND GMBH, priority 2013, published 2016)",
  "type_in_all_cases": "cell-based",
  "key": {"Pseudomonas aeruginosa": {"system": "Pseudomonas aeruginosa", "test": "preservative efficacy test of inoculated m-cresol test solutions", "parameters": "unit not given beside the values", "details": "1.8 mg/ml m-cresol", "method": "(§1) In a first experiment, the minimum m-cresol concentration necessary to ensure microbiological integrity was determined.\n(§2) Test solutions with m-cresol concentrations of between 2.7 mg/ml down to 1.5 mg/ml were inoculated with an inoculum of different bacteria and fungi/yeast and stored for 28 days. During the test, the bacteria and fungi/yeast population of the test solutions were repeatedly analyzed."}, "Aspergillus niger": {"system": "Aspergillus niger", "test": "preservative efficacy test of inoculated m-cresol test solutions", "details": "1.8 mg/ml m-cresol", "method": "as §1, §2"}, "Candida albicans": {"system": "Candida albicans", "test": "preservative efficacy test of inoculated m-cresol test solutions", "details": "1.8 mg/ml m-cresol", "method": "as §1, §2"}, "Staphilococcus aureus": {"system": "Staphilococcus aureus", "test": "preservative efficacy test of inoculated m-cresol test solutions", "details": "1.8 mg/ml m-cresol", "method": "as §1, §2"}, "Escherichia coli": {"system": "Escherichia coli", "test": "preservative efficacy test of inoculated m-cresol test solutions", "details": "1.8 mg/ml m-cresol", "method": "as §1, §2"}, "bacteria and fungi/yeast": {"system": "bacteria and fungi/yeast", "test": "comparison of test solution results to Ph. Eur. and USP criteria", "method": "The Ph. Eur. and USP criteria are given in table 1, wherein the numbers designate the required order of magnitude in CFU (colony forming unit) decrease as a function of time since the time of contamination (T0).\nas §2\nThe analysis presented in table 2 for the 1.8 mg/ml m-cresol test solution was also performed for the test solutions with different m-cresol contents. The results were then compared to the Ph.Eur. and USP criteria to determine, which m-cresol contents are sufficient to fulfil these criteria."}},
  "note": "Several values for one entry are separate records, joined by “and”; a condition that tells them apart may be missing. Identical values can stand only once.",
  "data": [
    {"smiles": "Cc1cccc(O)c1", "note": "[m-cresol]", "values": [
      {"measurement": "Pseudomonas aeruginosa content", "setting": "Pseudomonas aeruginosa; 6 h", "result": "<10"},
      {"measurement": "Pseudomonas aeruginosa content", "setting": "Pseudomonas aeruginosa; 24 h", "result": "<10"},
      {"measurement": "Pseudomonas aeruginosa content", "setting": "Pseudomonas aeruginosa; 7 d", "result": "<10"},
      {"measurement": "Pseudomonas aeruginosa content", "setting": "Pseudomonas aeruginosa; 14 d", "result": "<10"},
      {"measurement": "Pseudomonas aeruginosa content", "setting": "Pseudomonas aeruginosa; 28 d", "result": "<10"},
      {"measurement": "Pseudomonas aeruginosa content", "setting": "Pseudomonas aeruginosa; Start (T0)", "result": 23000},
      {"measurement": "Aspergillus niger content", "setting": "Aspergillus niger; 7 d", "result": 15},
      {"measurement": "Aspergillus niger content", "setting": "Aspergillus niger; 14 d", "result": "<10"},
      {"measurement": "Aspergillus niger content", "setting": "Aspergillus niger; 28 d", "result": "<10"},
      {"measurement": "Aspergillus niger content", "setting": "Aspergillus niger; Start (T0)", "result": 250000},
      {"measurement": "Candida albicans content", "setting": "Candida albicans; 7 d", "result": 100},
      {"measurement": "Candida albicans content", "setting": "Candida albicans; 14 d", "result": 30},
      {"measurement": "Candida albicans content", "setting": "Candida albicans; 28 d", "result": "<10"},
      {"measurement": "Candida albicans content", "setting": "Candida albicans; Start (T0)", "result": 400000},
      {"measurement": "Staphilococcus aureus content", "setting": "Staphilococcus aureus; 6 h", "result": 2200},
      {"measurement": "Staphilococcus aureus content", "setting": "Staphilococcus aureus; 24 h", "result": "<10"},
      {"measurement": "Staphilococcus aureus content", "setting": "Staphilococcus aureus; 7 d", "result": "<10"},
      {"measurement": "Staphilococcus aureus content", "setting": "Staphilococcus aureus; 14 d", "result": "<10"},
      {"measurement": "Staphilococcus aureus content", "setting": "Staphilococcus aureus; 28 d", "result": "<10"},
      {"measurement": "Staphilococcus aureus content", "setting": "Staphilococcus aureus; Start (T0)", "result": 170000},
      {"measurement": "Escherichia coli content", "setting": "Escherichia coli; 6 h", "result": 55},
      {"measurement": "Escherichia coli content", "setting": "Escherichia coli; 24 h", "result": "<10"},
      {"measurement": "Escherichia coli content", "setting": "Escherichia coli; 7 d", "result": "<10"},
      {"measurement": "Escherichia coli content", "setting": "Escherichia coli; 14 d", "result": "<10"},
      {"measurement": "Escherichia coli content", "setting": "Escherichia coli; 28 d", "result": "<10"},
      {"measurement": "Escherichia coli content", "setting": "Escherichia coli; Start (T0)", "result": 190000},
      {"measurement": "m-cresol content still enough to fulfil both the Ph.Eur. criterion A and the USP criteria", "setting": "bacteria and fungi/yeast; conclusion of first experiment", "result": "2.1 mg/mL and 1.8 mg/mL"},
      {"measurement": "m-cresol content down to which the USP criteria are fulfilled", "setting": "bacteria and fungi/yeast; lowest content tested 1.5 mg/ml", "result": 1.5, "unit": "mg/mL"}
    ]}
  ]
}
